We go through nine compounds from US10045983B2, “Heteroaryl pyridone and aza-pyrodine compounds” (Genentech, Inc., priority 2011, dated 2018).

This assay in a line: CD69 Whole Blood Assay (CD69 Hu Blood FACS). The class given is cell-based, human. The settings on record: Lymphocyte; human whole blood, anti-IgM activated B lymphocytes, FACS; IC70; Table 1; read-out: CD69 Hu Blood FACS IC70. The text has this:
A CD69 Whole Blood Assay can be conducted on Formula I compounds to determine the ability of compounds to inhibit the production of CD69 by B lymphocytes in human whole blood activated by crosslinking surface IgM with goat F(ab′)2 anti-human IgM (Example 907). CD69 is a type II C-type lectin involved in lymphocyte migration and cytokine secretion. CD69 expression represents one of the earliest available indicators of leukocyte activation and its rapid induction occurs through transcriptional activation (Vazquez et al (2009) Jour. of Immunology Published Oct. 19, 2009, doi:10.4049/jimmunol.0900839). Concentration-dependent inhibition of antigen receptor stimulation by selective Btk inhibitors induces cell surface expression of the lymphocyte activation marker CD69 (Honigberg et al (2010) Proc. Natl. Acad. Sci. 107(29):13075-13080). Thus, CD69 inhibition by selective Btk inhibitors may be correlated with therapeutic efficacy of certain B-cell disorders.

Usually IC70 stands for the point of the concentration-response curve where the effect stands at 70%. With `Cn1cc(-c2ccnc(N3CCc4c(cc5n4CCCC5)C3=O)c2CO)cc(Nc2ccc(N3CCN(C4COC4)CC3)cn2)c1=O` [Example 139, 2-(3-(Hydroxymethyl)-4-(1-methyl-5-(5-(4-(oxetan-3-yl)piperazin-1-yl)pyridine-2-ylamino)-6-oxo-1,6-dihydropyridin-3-yl)pyridin-2-yl)-3,4,6,7,8,9-hexahydropyrido[3,4-b]indolizin-1(2H)-one], the IC70 came to 0.326 µM.

As to `C[C@H]1CN(C2COC2)CCN1c1ccc(Nc2cc(-c3ccnc(N4CCn5c(cc6c5CC(F)(F)CC6)C4=O)c3CO)cn(C)c2=O)nc1` [Example 140, (S)-7,7-Difluoro-2-(3-(hydroxymethyl)-4-(1-methyl-5-(5-(2-methyl-4-(oxetan-3-yl)piperazin-1-yl)pyridin-2-ylamino)-6-oxo-1,6-dihydropyridin-3-yl)pyridin-2-yl)-3,4,6,7,8,9-hexahydropyrazino[1,2-a]indol-1(2H)-one], the IC70 was determined as 0.308 µM.

Regarding `CN1CCn2nc(Nc3cc(-c4ccnc(N5CCn6c(cc7c6CC(C)(C)C7)C5=O)c4CO)cn(C)c3=O)cc2C1` [Example 141, 2-[3′-Hydroxymethyl-1-methyl-5-(5-methyl-4,5,6,7-tetrahydro-pyrazolo[1,5-a]pyrazin-2-ylamino)-6-oxo-1,6-dihydro-[3,4′]bipyridinyl-2′-yl]-7,7-dimethyl-3,4,7,8-tetrahydro-2H,6H-cyclopenta[4,5]pyrrolo[1,2-a]pyrazin-1-one], the IC70 stood at 0.0266 µM.

On to `Cn1cc(-c2ccnc(N3CCn4c(cc5c4CCCC5)C3=O)c2CO)cc(Nc2ccncn2)c1=O` [Example 142, 2-[3′-Hydroxymethyl-1-methyl-6-oxo-5-(pyrimidin-4-ylamino)-1,6-dihydro-[3,4′]bipyridinyl-2′-yl]-3,4,6,7,8,9-hexahydro-2H-pyrazino[1,2-a]indol-1-one], for which the IC70 was 2.1 µM.

Take `Cn1cc(-c2ccnc(N3CCc4c(sc5c4CC(C)(C)C5)C3=O)c2CO)cc(Nc2ccncn2)c1=O` [Example 143, 6-[3′-Hydroxymethyl-1-methyl-6-oxo-5-(pyrimidin-4-ylamino)-1,6-dihydro-[3,4′]bipyridinyl-2′-yl]-2,2-dimethyl-2,3,5,6-tetrahydro-1H,4H-8-thia-6-aza-cyclopenta[a]inden-7-one]: the IC70 worked out at 0.0309 µM.

With `Cn1cc(-c2ccnc(N3CCn4c(cc5c4CC(C)(C)C5)C3=O)c2CO)cc(Nc2ccncn2)c1=O` [Example 144, 2-[3′-Hydroxymethyl-1-methyl-6-oxo-5-(pyrimidin-4-ylamino)-1,6-dihydro-[3,4′]bipyridinyl-2′-yl]-7,7-dimethyl-3,4,7,8-tetrahydro-2H,6H-cyclopenta-[4,5]pyrrolo[1,2-a]pyrazin-1-one], the IC70 was 0.106 µM.

Consider `C[C@H]1CN(C2COC2)CCN1c1ccc(Nc2cc(-c3ccnc(N4CCc5c(sc6c5CC(C)(C)C6)C4=O)c3CO)cn(C)c2=O)nc1` [Example 145, 6-{3′-Hydroxymethyl-1-methyl-5-[5-((S)-2-methyl-4-oxetan-3-yl-piperazin-1-yl)-pyridin-2-ylamino]-6-oxo-1,6-dihydro-[3,4′]bipyridinyl-2′-yl}-2,2-dimethyl-2,3,5,6-tetrahydro-1H,4H-8-thia-6-aza-cyclopenta[a]inden-7-one], for which the IC70 amounted to 0.0147 µM.

In the case of `Cn1cc(-c2ccnc(N3CCn4c5c(c(F)c4C3=O)CCCC5)c2CO)cc(Nc2ccncn2)c1=O` [Example 146, 10-Fluoro-2-(3-(hydroxymethyl)-4-(1-methyl-6-oxo-5-(pyrimidin-4-ylamino)-1,6-dihydropyridin-3-yl)pyridin-2-yl)-3,4,6,7,8,9-hexahydropyrazino[1,2-a]indol-1(2H)-one], the IC70 came to 0.0856 µM.

Take `CN1CCn2nc(Nc3cc(-c4ccnc(N5CCc6c(cc7n6CCCC7)C5=O)c4CO)cn(C)c3=O)cc2C1` [Example 147, 2-(3-(Hydroxymethyl)-4-(1-methyl-5-(5-methyl-4,5,6,7-tetrahydro-pyrazolo[1,5-a]pyrazin-2-ylamino)-6-oxo-1,6-dihydropyridin-3-yl)pyridin-2-yl)-3,4,6,7,8,9-hexahydropyrido[3,4-b]indolizin-1(2H)-one]: the IC70 was 0.32 µM.
